Experiments:
[1] = test system: ds plasmid DNA or heat-denatured E. coli RNA; test: fluorescence titration with dsDNA versus RNA (selectivity); type: binding; details: for emission strength with DNA relative to RNA: 50 μM DNA or RNA
Method: Plasmid dsDNA was purified using a Qiagen Maxiprep kit and used in the supercoiled form for absorption and fluorescence studies. E. coli total RNA was bought from Ambion, dA/dT and dG/dC homopolymers were purchased from Amersham Biosciences. Calf thymus (CT) high-molecular weight DNA and Hoechst 33258 were obtained from Sigma-Aldrich. Ethidium bromide was purchased from Amresco.
Spectrometry and fluorimetry were performed using a SpectraMax384 (Molecular Devices) and a Luminescence Spectrometer LS50B (Perkin Elmer). Fluorescence emission of compound I in complex with DNA and RNA was measured in 50 mM Na phosphate buffer, pH 7.2 at room temperature. Before use, total E. coli RNA was heated to 100° C. for 1 min and immediately transferred on ice for 5 min before mixing with compound I solution. All measurements were carried out at room temperature (20-23° C.) in solutions protected from light and incubated for ˜10-15 min after dilution. The units of b/dye and bp/dye are defined as moles of RNA bases or DNA base pairs per mole of dye. Quantum yield was measured using quinine sulphate as standard as described in (Iupac Commission on Photochemistry, EPA Newsletter of November 1986, 21-29) using FLUOROMAX-3 Spex Spectrofluorometer (HORIBA) and UVIKON XL Spectrophotometer (SECOMAM).
A number of known fluorescent dyes bind preferentially to dsDNA, while others, like the SYTO dyes, bind similarly well to dsDNA, ssDNA and RNA (Haugland, R. P. et al., supra). Knowing these properties is important to the design of experiments where one or another (or several) type(s) of nucleic acids may be present. To investigate the selectivity of compound I, the inventors have compared fluorescence intensities at 484 nm of the dye incubated with ds plasmid DNA or heat-denatured E. coli RNA. […] At higher dye/b or dye/bp ratio, the difference was smaller (1.8-fold at dye/b(bp) ratio 0.2), meaning that elevated amounts of dye could saturate both types of nucleic acids. The inventors then performed the experiment in the opposite sense, i.e. titrating a fixed amount of compound I at 1 μM with increasing amounts of DNA and RNA.

live mouse fibroblasts = test: photoactivation of nuclear fluorescence in live cells (time-lapse video microscopy); type: cell-based; details: 5 μM, continuous illumination, Alexa488/FITC filter
Method: Compound I at 5 μM was added directly into the cell medium 10 min before observation in an inverted microscope Zeiss Axiovert 200M with a 100 W mercury lamp. Time lapse images were acquired using CoolSnap HQ (Photometrics, Inc.) black and white camera driven by the Metamorph software (Universal Imaging). All experiments were carried out using 40× or 63× (FIGS. 1C and D) oil immersion Apochromat Zeiss objectives. To measure the fluorescence intensities, an oval region was drawn inside of each nucleus using Metamorph software and integrated intensities (nuclear surface multiplied by the average pixel value) were logged for each image.
To quantify this effect, live mouse fibroblasts were incubated in the presence of 5 μM compound I and time-lapse video microscopy was used to film the cells. Nuclear fluorescence develops slowly in the nuclei of cells treated with compound I and illuminated continuously using a standard Alexa488/FITC filter set (475AF40, 535AF45) (FIG. 5A). Fluorescence peaked after 8 min of illumination and then started to fade (FIG. 5C), most likely reflecting the “bleaching” of compound I. The photoactivation concerned only the cells in the illuminated field, as nuclei of cells immediately outside of the illuminated field remained imperceptible (non-fluorescent). […]

[2] = test system: primary human fibroblasts; test: nuclear fluorescence compared with cyclin A immunofluorescence (DNA quantification); type: cell-based; details: methanol-fixed cells
Excerpt: Such a double staining carried the risk of a possible competition for binding sites and/or unpredictable effects on fluorescence. Therefore, the inventors decided to compare the integrated total fluorescence of compound I-stained nuclei in fixed cells with a known cell cycle protein marker. The inventors fixed primary human fibroblasts with methanol, performed indirect immunofluorescence with anti-cyclin A antibodies, followed by Alexa 568-labelled secondary antibodies and counterstained nuclei with compound I. Cyclin A accumulates in cells beginning at the S phase and throughout the G2 cell cycle phase, and unlike cyclin B, is practically all nuclear (rev. in Pines, J. et al., 1992, Ciba Found Symp, 170, 187-196; discussion 196-204.). […] Moreover, the inventors observed a direct correlation of the compound I fluorescence with that of cyclin A in cyclin A-positive cells (FIG. 6B). […] This correlates well with 2N and 4N DNA content expected to be found in G1 and G2 cells, respectively.

COc1ccc2c(c1)c(C)nc1c3ccc(OC)cc3c(NCCCN(C)C)nc21 [Compound I, N′-(2,8-dimethoxy-12-methyl-dibenzo[c,h][1,5]naphthyridin-6-yl)-N,N-dimethyl-propane-1,3-diamine]
saturation of fixed amount of dye by RNA (not saturated) ([1]; 1 μM dye): > 250 b/dye | saturation of fixed amount of dye by dsDNA ([1]; 1 μM dye): ~30 bp/dye | fluorescence with dsDNA relative to RNA ([1]; 1 μM dye titrated with DNA and RNA, same b(bp)/dye ratios): 2.5-3.6 | emission strength with DNA relative to RNA ([1]; dye/b(bp) ratio 0.2): 1.8 fold | emission strength with DNA relative to RNA ([1]; low dye/bp and dye/b ratios, 484 nm): 6 fold | illumination time to peak/plateau of nuclear fluorescence (live mouse fibroblasts): 8 min | dye fluorescence of strongly cyclin A-positive nuclei relative to cyclin A-negative nuclei [2]: approximately twice as much

Reference: patent US7728128B2, “Dibenzo[c,h][1,5]naphthyridines and their use as DNA probes” (Institut National de la Sante et de la Recherche Medicate …, priority 2006, dated 2010)
